What was measured:
[1] = target: T1, Nitric oxide synthase, inducible (Mus musculus, UniProt P29477); assay: Inhibition of purified mouse inducible nitric oxide synthase catalyzed [14C]L-citrulline production at a compound concentration of 1 mM in presence of 50 uM L-arginine
T1 sequence (P29477 whole entry): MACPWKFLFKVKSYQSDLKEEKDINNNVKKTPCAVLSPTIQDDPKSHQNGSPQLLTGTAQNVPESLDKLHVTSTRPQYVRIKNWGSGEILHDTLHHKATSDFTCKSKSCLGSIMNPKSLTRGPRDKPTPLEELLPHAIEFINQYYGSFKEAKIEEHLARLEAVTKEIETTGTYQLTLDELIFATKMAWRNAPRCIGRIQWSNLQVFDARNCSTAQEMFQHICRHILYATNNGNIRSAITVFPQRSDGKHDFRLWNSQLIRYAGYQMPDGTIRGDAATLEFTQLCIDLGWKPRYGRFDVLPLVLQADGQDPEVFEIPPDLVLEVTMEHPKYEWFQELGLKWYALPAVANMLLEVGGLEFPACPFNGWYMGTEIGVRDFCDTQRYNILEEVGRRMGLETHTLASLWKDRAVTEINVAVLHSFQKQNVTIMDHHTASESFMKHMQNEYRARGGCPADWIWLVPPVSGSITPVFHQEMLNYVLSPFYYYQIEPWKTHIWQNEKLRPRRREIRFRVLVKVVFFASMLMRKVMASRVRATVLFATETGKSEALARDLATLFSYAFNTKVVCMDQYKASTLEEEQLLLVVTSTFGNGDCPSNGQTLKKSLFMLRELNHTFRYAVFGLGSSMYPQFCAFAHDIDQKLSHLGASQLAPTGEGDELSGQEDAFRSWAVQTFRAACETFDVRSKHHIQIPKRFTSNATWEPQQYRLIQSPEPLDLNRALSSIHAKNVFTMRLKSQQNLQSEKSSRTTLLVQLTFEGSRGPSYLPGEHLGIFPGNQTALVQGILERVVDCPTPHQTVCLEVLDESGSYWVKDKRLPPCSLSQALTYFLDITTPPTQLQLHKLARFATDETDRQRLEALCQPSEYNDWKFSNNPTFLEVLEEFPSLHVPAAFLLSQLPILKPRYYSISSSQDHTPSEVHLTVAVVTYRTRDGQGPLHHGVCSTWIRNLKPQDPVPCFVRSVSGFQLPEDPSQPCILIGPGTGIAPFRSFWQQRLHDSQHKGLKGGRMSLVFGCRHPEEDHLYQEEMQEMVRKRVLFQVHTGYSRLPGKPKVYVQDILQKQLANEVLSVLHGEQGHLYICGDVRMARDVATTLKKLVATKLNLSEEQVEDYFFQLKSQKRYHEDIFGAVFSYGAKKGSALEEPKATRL

[2] = target: T2, Nitric oxide synthase 3 (Bos taurus, UniProt P29473); assay: Inhibition of bovine endothelial nitric oxide synthase catalyzed [14C]L-citrulline production at a compound concentration of 1 mM in presence of 50 uM L-arginine
T2 sequence (P29473 whole entry): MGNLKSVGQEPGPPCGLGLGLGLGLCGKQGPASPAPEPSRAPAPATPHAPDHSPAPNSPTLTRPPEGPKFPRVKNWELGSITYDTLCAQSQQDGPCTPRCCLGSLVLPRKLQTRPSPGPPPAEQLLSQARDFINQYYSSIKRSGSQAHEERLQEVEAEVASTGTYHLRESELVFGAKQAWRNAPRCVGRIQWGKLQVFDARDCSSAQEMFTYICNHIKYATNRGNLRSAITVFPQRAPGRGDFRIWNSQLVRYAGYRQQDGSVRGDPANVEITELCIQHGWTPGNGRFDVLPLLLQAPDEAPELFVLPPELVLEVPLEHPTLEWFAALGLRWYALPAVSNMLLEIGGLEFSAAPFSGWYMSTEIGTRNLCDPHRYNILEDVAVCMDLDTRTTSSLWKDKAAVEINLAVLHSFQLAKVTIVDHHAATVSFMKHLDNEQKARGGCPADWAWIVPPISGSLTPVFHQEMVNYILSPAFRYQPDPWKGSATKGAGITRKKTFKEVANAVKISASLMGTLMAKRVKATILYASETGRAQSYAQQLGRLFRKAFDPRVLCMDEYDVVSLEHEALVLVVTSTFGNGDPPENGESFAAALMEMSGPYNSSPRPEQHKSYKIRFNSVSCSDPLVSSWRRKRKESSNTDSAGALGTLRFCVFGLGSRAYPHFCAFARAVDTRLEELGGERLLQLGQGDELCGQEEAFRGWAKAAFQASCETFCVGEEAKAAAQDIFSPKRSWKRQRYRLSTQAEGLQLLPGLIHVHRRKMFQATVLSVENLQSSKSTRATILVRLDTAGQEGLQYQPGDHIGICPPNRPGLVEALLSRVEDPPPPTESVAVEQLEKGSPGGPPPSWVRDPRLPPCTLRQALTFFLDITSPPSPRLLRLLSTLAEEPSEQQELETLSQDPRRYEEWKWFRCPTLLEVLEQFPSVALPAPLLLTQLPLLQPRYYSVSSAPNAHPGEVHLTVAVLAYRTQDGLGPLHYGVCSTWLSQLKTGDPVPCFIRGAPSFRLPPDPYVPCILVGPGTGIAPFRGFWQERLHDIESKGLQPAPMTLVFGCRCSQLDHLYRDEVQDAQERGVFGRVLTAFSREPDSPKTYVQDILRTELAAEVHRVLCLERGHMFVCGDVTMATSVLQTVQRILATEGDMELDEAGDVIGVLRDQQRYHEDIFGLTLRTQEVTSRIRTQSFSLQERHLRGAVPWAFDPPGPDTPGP

[3] = target: T3, Nitric oxide synthase 1 (Rattus norvegicus, UniProt P29476); assay: Inhibition of rat neuronal nitric oxide synthase catalyzed [14C]L-citrulline production at a compound concentration of 1 mM in presence of 50 uM L-arginine
T3 sequence (P29476 whole entry): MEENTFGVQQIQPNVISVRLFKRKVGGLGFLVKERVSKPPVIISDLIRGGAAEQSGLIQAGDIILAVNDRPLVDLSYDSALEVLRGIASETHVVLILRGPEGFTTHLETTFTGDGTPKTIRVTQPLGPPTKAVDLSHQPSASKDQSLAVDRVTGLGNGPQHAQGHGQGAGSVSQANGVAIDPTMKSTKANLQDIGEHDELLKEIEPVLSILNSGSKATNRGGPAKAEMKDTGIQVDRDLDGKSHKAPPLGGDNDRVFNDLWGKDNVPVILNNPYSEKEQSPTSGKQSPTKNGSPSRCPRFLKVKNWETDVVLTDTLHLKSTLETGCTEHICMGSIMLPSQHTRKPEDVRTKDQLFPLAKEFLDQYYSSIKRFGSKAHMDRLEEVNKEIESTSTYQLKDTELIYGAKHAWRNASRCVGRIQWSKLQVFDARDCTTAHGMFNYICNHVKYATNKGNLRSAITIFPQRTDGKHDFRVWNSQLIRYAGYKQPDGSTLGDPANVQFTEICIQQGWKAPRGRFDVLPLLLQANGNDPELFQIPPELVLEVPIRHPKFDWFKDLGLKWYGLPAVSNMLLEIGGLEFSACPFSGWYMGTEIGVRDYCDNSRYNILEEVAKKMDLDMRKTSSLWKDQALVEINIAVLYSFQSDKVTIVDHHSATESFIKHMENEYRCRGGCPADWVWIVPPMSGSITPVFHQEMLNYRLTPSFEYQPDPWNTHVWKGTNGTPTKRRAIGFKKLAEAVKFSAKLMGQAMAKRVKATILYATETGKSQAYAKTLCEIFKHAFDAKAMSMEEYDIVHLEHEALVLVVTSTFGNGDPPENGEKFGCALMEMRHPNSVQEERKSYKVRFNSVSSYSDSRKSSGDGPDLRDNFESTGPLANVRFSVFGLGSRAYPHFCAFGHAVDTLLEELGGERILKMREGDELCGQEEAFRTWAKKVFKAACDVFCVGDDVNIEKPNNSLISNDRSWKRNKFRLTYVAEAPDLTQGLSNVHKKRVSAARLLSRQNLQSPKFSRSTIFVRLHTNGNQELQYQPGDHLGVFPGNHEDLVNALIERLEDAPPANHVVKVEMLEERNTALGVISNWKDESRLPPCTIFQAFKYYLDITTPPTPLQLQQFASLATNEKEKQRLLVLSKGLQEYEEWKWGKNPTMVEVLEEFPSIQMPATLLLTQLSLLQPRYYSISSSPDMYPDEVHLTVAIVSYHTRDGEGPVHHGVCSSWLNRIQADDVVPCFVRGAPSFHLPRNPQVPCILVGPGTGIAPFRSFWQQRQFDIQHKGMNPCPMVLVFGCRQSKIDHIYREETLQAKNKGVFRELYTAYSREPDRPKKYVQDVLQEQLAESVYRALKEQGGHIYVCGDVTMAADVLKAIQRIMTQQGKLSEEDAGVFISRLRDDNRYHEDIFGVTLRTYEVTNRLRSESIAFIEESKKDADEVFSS

[4] = target: T3, Nitric oxide synthase 1; assay: Compound was evaluated as nitric oxide producing substrate of rat Neuronal nitric oxide synthase using the Griess assay; NA means Not active
[5] = target: T1, Nitric oxide synthase, inducible; assay: Compound was evaluated as nitric oxide producing substrate of mouse Inducible nitric oxide synthase using the Griess assay; NA means Not active
[6] = target: T2, Nitric oxide synthase 3; assay: Compound was evaluated as nitric oxide producing substrate of bovine Endothelial nitric oxide synthase using the Griess assay; NA means Not active

N=C(N)NCc1ncc[nH]1
IC50 [1]: 138 µM

c1c[nH]cn1 [IMIDAZOLE]
IC50 [1]: 40 µM

N/C(=N\CCC[C@@H](N)C(=O)O)NCc1ncc[nH]1
IC50 [2]: 347 µM | IC50 [3]: 1590 µM

N/C(=N\CCC[C@H](N)C(=O)O)NCc1c[nH]cn1
NO production as substrate [4]: Not Active | NO production as substrate [5]: Not Active | NO-producing substrate activity [6]: Not Active

c1ccc(-c2ncc[nH]2)cc1 [2-PHENYLIMIDAZOLE]
IC50 [1]: > 1000 µM

N=C(N)NCCc1ncc[nH]1
NO production as substrate [4]: Not Active | NO production as substrate [5]: Not Active | NO-producing substrate activity [6]: Not Active

N=C(N)NCc1c[nH]cn1
NO production as substrate [4]: Not Active | NO production as substrate [5]: Not Active | NO-producing substrate activity [6]: Not Active

N/C(=N\CCC[C@@H](N)C(=O)O)NCCc1ncc[nH]1
IC50 [2]: 629 µM | IC50 [3]: 1490 µM

N=C(N)NCCc1c[nH]cn1
NO production as substrate [4]: Not Active | NO production as substrate [5]: Not Active | NO-producing substrate activity [6]: Not Active

N/C(=N\CCC[C@@H](N)C(=O)O)NCCc1c[nH]cn1
IC50 [2]: 1090 µM

— ChEMBL document CHEMBL1132035, “Guanidine-substituted imidazoles as inhibitors of nitric oxide synthase” (Bioorg Med Chem Lett, 1999)
